Assay results as given in PMC12593371, “Whole-Body Disposition and Metabolism of [^14C]-2,4,4′-Trichlorobiphenyl (PCB28) Following Lung Administration in Rats” (Environmental Science & Technology, 2025).

Tests used:
[1] = parameters: method as in our prior study (number not given); conditions: acute inhalation exposure to a PCB mixture, estimated dose 40 μg/rat; ref our prior study (number not given); cited from earlier work
[2] = Mass balance and whole-body tissue distribution of radioactivity after intratracheal [14C]-PCB28; type: in vivo, Male Sprague–Dawley rats; conditions: for contribution of adipose tissue to total radioactivity: 720 min; for share of the remaining radioactivity: 12 min
Text: (§1) Male Sprague–Dawley rats (8 weeks old) weighing 230–285 g (mean of 256 g) were used in this study (Envigo, Indianapolis, IN). Male rats were selected to maintain consistency with previous toxicokinetic investigations of lower-chlorinated PCBs, specifically the study on intratracheally instilled ^14C-labeled dichlorinated PCB11, which also utilized male rats. This approach facilitated direct comparison across studies and contributed to a more comprehensive toxicokinetic data set for LC-PCBs following inhalation exposure. A PCB toxicokinetic study being published separately investigated placental transfer and fetal uptake in pregnant females. All animals were handled in compliance with an approved Institutional Animal Care and Use Committee protocol (protocol#: 3091097 approved on 10/12/2023). Rats were pair-housed in a light and temperature-controlled environment with access to food and water ad libitum. After 1 week of acclimatization, rats were assigned to either a high-dose (HD) group (n = 9) or a low-dose (LD) group (n = 5) at random. Control rats (n = 3) were exposed to a single dose of unlabeled PCB28 (42 μg in 200 μL) and necropsied 50 min after exposure to establish background levels for radioactivity calculations in blank tissues. […] Therefore, animal numbers were customized between groups to most efficiently utilize the limited available ^14C-PCB28 stock in our lab.
(§2) Animals in the HD group were intratracheally (i.t.) administered 42 μg of a one-time single dose of [^14C]-PCB28 in 200 μL of vehicle, while animals in the LD group received 4.2 μg of [^14C]-PCB28 in 100 μL of vehicle. The i.t. route for dosing was selected due to the limited availability and extraordinary cost of the radiolabeled PCB28, and to avoid ^14C contamination of the inhalation exposure apparatus. All i.t. instillation was performed under light anesthesia (4% isoflurane via a precision vaporizer Fortec, Cyprane, Keighley, UK). Rats recovered from the anesthesia within 2 min while held within a cylindrical glass chamber (2 L), equipped with drainage ports to facilitate urine collection and a metallic screen to segregate urine from feces (as illustrated in Figure S1). Air was drawn from the chamber at 6.0 L/min through a cartridge containing XAD-2 polymeric resin (Amberlite, Millipore Sigma, Burlington, MA) to capture any exhaled [^14C]-PCB28. For the longer time points (720 and 1440 min), individual rats were placed in metabolic cages following a similar protocol for excreta and exhaled breath collection. After exposure, the inner walls of the chamber were rinsed separately with water, acetone, and hexane (25 – 45 mL) and wiped to measure radioactivity. Rat fur was also wiped and analyzed for radioactivity. The rats exposed to the HD were euthanized using isoflurane and exsanguination via cardiac puncture at 12, 25, 50, 100, 200, 400, 720, and 1440 min postexposure (n = 1 per time point except n = 2 for 200 min). Animals exposed to the LD were similarly necropsied at time points of 2, 12, 50, 200, and 720 min postexposure (n = 2). Euthanasia was consistently performed during the light cycle, except in the case of the 720 min time point, wherein euthanasia occurred outside the light cycle.
Serum and blood cells were separated. Two to six technical replicates were collected from 36 tissue types and digestive matter (diluted in ultrapure water) from 5 different GI tract locations. Muscle and adipose tissue samples were obtained from various locations. The collected tissue samples were placed in scintillation vials containing 1 mL of solvable cocktail and kept at 37 °C overnight for complete solubilization. To enable subsequent analyses, the solubilized tissue samples underwent a 2-h heating phase at 50 °C. For the bone, feces, and digestive matter, 1 mL of isopropyl alcohol was added. For samples displaying darker coloration, a controlled volume of 30% hydrogen peroxide (100 to 300 μL) was slowly added in increments to remove potential interference. […]

[3] = parameters: method as in previously reported (number not given); conditions: oral exposure to a PCB mixture; ref previously reported (number not given); cited from earlier work
[4] = Fractionation of parent PCB28 and metabolites in serum, liver, adipose and kidney (liquid scintillation counting); type: in vivo, Male Sprague–Dawley rats; conditions: for peak concentration of parent compound in serum: 12 min
Procedure: as §2
Extractions of parent PCB28 and its hydroxylated, methyl sulfone, and conjugated metabolites in serum, liver, adipose, and kidney samples were conducted using our previous protocol. Individual extractable metabolites were separated using a series of liquid–liquid extractions, employing a graded array of solvents with increasing polarity to facilitate the partitioning of the analytes according to their inherent lipophilic characteristics (Figure S2). Subsequently, individual fractions were classified into respective categories, including the native PCB moiety, hydroxylated PCB (OH-PCB), methyl sulfonyl-PCB (MeSO2-PCB), conjugated metabolites, and unextractable components. Analytical recoveries were quantified for each extraction and separation step. Tissue samples (200–400 mg wet weight) were prepared for analysis in a two-step homogenization process using 2 mL of hexane/acetone solvent (50:50, vol/vol). The resultant solution was centrifuged, and then the pellet underwent two successive extractions with 1.5 mL of dichloromethane (DCM), chloroform/methanol (50:50 vol/vol), methanol/water (50:50 vol/vol), and water, respectively. […] The residual hydrophobic phase was quantified as native PCB28. The quantification of unlabeled PCB28, OH-PCBs (as MeO-PCB derivatives), and MeSO2–PCBs in standards spiked samples was performed on a gas chromatograph (Agilent 6890N) equipped with a ^63Ni μ-ECD detector and SLB-5MS capillary column (60 m × 0.25 mm I.D., 0.25 μm film thickness; Supelco, St Louis, MO). […]

[5] = Toxicokinetic parameters by noncompartmental analysis after intratracheal administration of [14C]-PCB28; type: in vivo, Male Sprague–Dawley rats
Text: as §1
as §2, with “Rats recovered from the anesthesia within 2 min while held within a cylindrical glass chamber (2 L), equipped with drainage ports to facilitate urine collection and a metallic screen to segregate urine from feces (as illustrated in Figure S1).” left out, “Animals exposed to the LD were similarly necropsied at time points of 2, 12, 50, 200, and 720 min postexposure (n = 2).” left out
Serum and blood cells were separated. Two to six technical replicates were collected from 36 tissue types and digestive matter (diluted in ultrapure water) from 5 different GI tract locations. Muscle and adipose tissue samples were obtained from various locations. The collected tissue samples were placed in scintillation vials containing 1 mL of solvable cocktail and kept at 37 °C overnight for complete solubilization. To enable subsequent analyses, the solubilized tissue samples underwent a 2-h heating phase at 50 °C. For the bone, feces, and digestive matter, 1 mL of isopropyl alcohol was added. For samples displaying darker coloration, a controlled volume of 30% hydrogen peroxide (100 to 300 μL) was slowly added in increments to remove potential interference.

Clc1cccc(-c2cccc(Cl)c2)c1 [PCB11]
serum elimination half-life [1]: 11.5 h

Clc1ccc(-c2ccc(Cl)cc2Cl)cc1 [PCB28, 2,4,4′-trichlorobiphenyl]
contribution of adipose tissue to total radioactivity ([2]; high dose): 30%
contribution of adipose tissue to total radioactivity ([2]; low dose): 28%
share of the retained radioactivity sequestered in skin and adipose tissue ([2]; 24 h): 67–77%
total radioactivity remaining within the body ([2]; 24 h): 88–92%
administered dose excreted via urine and feces ([2]; 24 h study): less than 4%
retention in the body or apparent bioavailability using fecal excretion ([2]; 24 h study): 92%
increase of adipose [14C] concentration throughout the entire time course ([2]; high dose): 6.5 fold
increase of adipose [14C] concentration throughout the entire time course ([2]; low dose): 21 fold
reduction of quantified radioactivity between 12 and 50 min ([2]; blood): 37–67%
total radioactivity excreted in the feces ([2]; by the end of the 24 h study period / at any time point): no more than 4%
time of peak concentration ([2]; duodenum digestive matter, both doses): 50 min
apparent bioavailability ([2]; from fecal excretion, 24 h): up to 96%
nominal recovered radioactivity of the administered dose in the collected tissues ([2]; high dose (42 μg i.t.)): 83 ± 5%
exhaled breath, share of the total recovered radioactivity ([2]; intratracheal dosing): 0.07 ± 0.04%
pulmonary uptake ([2]; intratracheal lung dosing): 99.9 ± 3.5%
reduction of quantified radioactivity between 12 and 50 min ([2]; kidney): 36–69%
reduction of quantified radioactivity between 12 and 50 min ([2]; liver): 41–58%
share of the remaining radioactivity ([2]; liver, high dose): 16.8%
share of the remaining radioactivity ([2]; liver, low dose): 20.6%
nominal recovered radioactivity of the administered dose in the collected tissues ([2]; low dose (4.2 μg i.t.)): 74 ± 13%
reduction of quantified radioactivity between 12 and 50 min ([2]; lung): 56–73%
share of the remaining radioactivity ([2]; muscle plus liver, high dose): ~52.1%
share of the remaining radioactivity ([2]; muscle, high dose): 35.3%
share of the remaining radioactivity ([2]; pulmonary regions, low dose): 16.7%
more radioactivity retained in serum at the low dose than at the high dose ([2]; serum, same time point): 92%
time of peak radioactivity ([2]; stomach matter): 50 min
time of peak adipose concentration [3]: 24 h
increase of parent PCB28 concentration over the entire study time course ([4]; adipose tissue, high dose): 9 fold
increase of parent PCB28 concentration between 200 and 720 min ([4]; adipose tissue, low dose): 3 fold
increase of parent PCB28 concentration over the entire study time course ([4]; adipose tissue, low dose): 36 fold
peak concentration of parent compound in serum ([4]; high dose): 47 dpm/mg
peak concentration of parent compound in serum ([4]; low dose): 7.6 dpm/mg
AUC, high dose compared to low dose ([5]; adipose tissue): 18.7 fold
C24 ([5]; adipose, high dose (42 μg i.t.)): 385 dpm/mg
C24 ([5]; adipose, low dose (4.2 μg i.t.)): 63.7 dpm/mg
C24 ([5]; bladder, high dose (42 μg i.t.)): 8.0 dpm/mg
C24 ([5]; bladder, low dose (4.2 μg i.t.)): 6.4 dpm/mg
C24 ([5]; brain, high dose (42 μg i.t.)): 11.0 dpm/mg
C24 ([5]; brain, low dose (4.2 μg i.t.)): 2.4 dpm/mg
C24 ([5]; bronchi, high dose (42 μg i.t.)): 205 dpm/mg
C24 ([5]; bronchi, low dose (4.2 μg i.t.)): 48.6 dpm/mg
C24 ([5]; esophagus, high dose (42 μg i.t.)): 13.0 dpm/mg
C24 ([5]; esophagus, low dose (4.2 μg i.t.)): 8.8 dpm/mg
C24 ([5]; heart, high dose (42 μg i.t.)): 17.0 dpm/mg
C24 ([5]; heart, low dose (4.2 μg i.t.)): 3.2 dpm/mg
blood/plasma ratio (blood-to-serum ratio) ([5]; high dose (42 μg i.t.)): 0.89
C24 ([5]; kidney, high dose (42 μg i.t.)): 23.0 dpm/mg
C24 ([5]; kidney, low dose (4.2 μg i.t.)): 5.6 dpm/mg
C24 ([5]; liver, high dose (42 μg i.t.)): 22.0 dpm/mg
C24 ([5]; liver, low dose (4.2 μg i.t.)): 5.7 dpm/mg
blood/plasma ratio (blood-to-serum ratio) ([5]; low dose (4.2 μg i.t.)): 0.89
C24 ([5]; lung, high dose (42 μg i.t.)): 44.0 dpm/mg
C24 ([5]; lung, low dose (4.2 μg i.t.)): 6.4 dpm/mg
AUC, high dose compared to low dose ([5]; muscle): 15.7 fold
C24 ([5]; muscle, high dose (42 μg i.t.)): 10.0 dpm/mg
C24 ([5]; muscle, low dose (4.2 μg i.t.)): 3.2 dpm/mg
C24 ([5]; pancreas, high dose (42 μg i.t.)): 93.0 dpm/mg
C24 ([5]; pancreas, low dose (4.2 μg i.t.)): 29.5 dpm/mg
AUC, high dose compared to low dose ([5]; prostate): 17.1 fold
C24 ([5]; prostate, high dose (42 μg i.t.)): 89.0 dpm/mg
C24 ([5]; prostate, low dose (4.2 μg i.t.)): 15.9 dpm/mg
serum AUC0–24 h, high dose compared to low dose ([5]; serum): approximately 10 fold
T1/2 ([5]; serum, high dose (42 μg i.t.), Table 1 prints mean (C–V%) without naming the dose): 12 h
C24 ([5]; serum, low dose (4.2 μg i.t.)): 0.80 dpm/mg
AUC, high dose compared to low dose ([5]; skin): 15.1 fold
C24 ([5]; skin, high dose (42 μg i.t.)): 155 dpm/mg
C24 ([5]; skin, low dose (4.2 μg i.t.)): 34.2 dpm/mg
AUC, high dose compared to low dose ([5]; spleen): 16.4 fold
C24 ([5]; spleen, high dose (42 μg i.t.)): 18.0 dpm/mg
C24 ([5]; spleen, low dose (4.2 μg i.t.)): 3.2 dpm/mg
C24 ([5]; testis, high dose (42 μg i.t.)): 6.0 dpm/mg
C24 ([5]; testis, low dose (4.2 μg i.t.)): 1.6 dpm/mg
C24 ([5]; thymus, high dose (42 μg i.t.)): 23.0 dpm/mg
C24 ([5]; thymus, low dose (4.2 μg i.t.)): 4.8 dpm/mg
C24 ([5]; thyroid, high dose (42 μg i.t.)): 72.0 dpm/mg
C24 ([5]; thyroid, low dose (4.2 μg i.t.)): 9.6 dpm/mg
C24 ([5]; trachea, high dose (42 μg i.t.)): 86.0 dpm/mg
C24 ([5]; trachea, low dose (4.2 μg i.t.)): 21.5 dpm/mg
